Earlier results in patent US5952306A, “Integrin receptor antagonists” (Merck & Co., Inc., priority 1997, dated 1999).

Experiments:
[1] = test system: platelet aggregation and thrombus formation in mammalian blood
[2] = test system: cell attachment-promoting effects of fibronectin and vitronectin

## Echistatin
Bone resorption
  block bone resorption: can effectively block bone resorption

## N-amidino-piperidine-3-carboxylglycyl-L-aspartyl-L-valine
[1]
  inhibit platelet aggregation and thrombus formation in mammalian blood: inhibit platelet aggregation and thrombus formation

## arginine-glycine-aspartic acid [Arg-Gly-Asp]
[2]
  activity (duplicate or inhibit cell attachment-promoting effects): low activity
